Columns and labels:
97 kinases = test: scanEDGE DiscoverX kinome-wide scan; assay type: binding; settings: 10 μM
Text: (§1) To compare our compounds to the rest of the MEK inhibitors discovered thus far, we turned to the DiscoverX platform (KINOMEscan®, Eurofins DiscoverX), a widely used assay for comparing selectivity across the kinome. The DiscoverX platform reports the thermodynamic Kd in order to facilitate direct comparison of inhibitor affinity across the kinome, independent of ATP concentration.

ERK1 = molecular target: T1, ERK1 (Homo sapiens, UniProt P27361); test: scanEDGE DiscoverX kinome-wide scan, ERK1; assay type: binding; settings: 10 μM
T1 construct: purchased Eurofins DiscoverX scanEDGE
T1 sequence (P27361 whole entry): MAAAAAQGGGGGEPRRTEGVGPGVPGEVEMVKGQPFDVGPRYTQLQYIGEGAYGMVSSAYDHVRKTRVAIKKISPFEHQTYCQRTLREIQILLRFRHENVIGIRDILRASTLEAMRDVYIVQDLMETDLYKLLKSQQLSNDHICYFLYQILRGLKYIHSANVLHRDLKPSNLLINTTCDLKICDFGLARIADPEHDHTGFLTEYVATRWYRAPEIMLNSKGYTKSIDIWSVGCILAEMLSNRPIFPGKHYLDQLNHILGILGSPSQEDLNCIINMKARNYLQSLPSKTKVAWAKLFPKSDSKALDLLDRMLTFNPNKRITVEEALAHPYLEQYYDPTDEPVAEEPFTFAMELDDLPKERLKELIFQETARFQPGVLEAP
Text: as §1

RAF = molecular target: T2, RAF (Homo sapiens, UniProt P04049); test: scanEDGE DiscoverX kinome-wide scan, RAF; assay type: binding; settings: 10 μM
T2 construct: purchased Eurofins DiscoverX scanEDGE
T2 sequence (P04049 whole entry): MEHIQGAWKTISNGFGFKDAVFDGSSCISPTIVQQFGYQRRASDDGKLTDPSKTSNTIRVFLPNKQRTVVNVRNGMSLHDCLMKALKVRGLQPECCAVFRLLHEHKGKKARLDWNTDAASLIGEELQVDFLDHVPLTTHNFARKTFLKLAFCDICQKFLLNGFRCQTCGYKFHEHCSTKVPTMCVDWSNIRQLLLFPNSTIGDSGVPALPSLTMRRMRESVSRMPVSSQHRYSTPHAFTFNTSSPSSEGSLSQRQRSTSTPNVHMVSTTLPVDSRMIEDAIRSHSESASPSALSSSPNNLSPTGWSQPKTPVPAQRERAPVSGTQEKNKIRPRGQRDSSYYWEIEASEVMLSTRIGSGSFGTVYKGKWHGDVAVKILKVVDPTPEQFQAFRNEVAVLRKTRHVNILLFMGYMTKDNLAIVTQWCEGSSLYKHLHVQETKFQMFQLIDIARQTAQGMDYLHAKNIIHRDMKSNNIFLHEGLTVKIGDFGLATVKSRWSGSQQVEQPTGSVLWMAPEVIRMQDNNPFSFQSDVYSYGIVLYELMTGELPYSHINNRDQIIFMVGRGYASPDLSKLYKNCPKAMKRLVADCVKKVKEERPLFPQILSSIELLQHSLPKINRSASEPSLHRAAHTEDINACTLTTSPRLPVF
Text: as §1

JNK1/2/3 = test: scanEDGE DiscoverX kinome-wide scan, JNK1/2/3; assay type: binding; settings: 10 μM
Text: as §1

in vitro = settings: microsomes
[1] = system: JNK phosphorylation in CD18 cells; test: anisomycin-induced JNK phosphorylation, western blotting, CD18; assay type: cell-based, human; settings: CD18, anisomycin 45 minutes then compound 5 hours
Protocol: (§2) HSP90 was used as loading control. The blots are representative of at least three biological replicates.
(§3) We also examined the effects of these inhibitors on JNK phosphorylation and proliferation of two pancreatic cancer cell lines (CD18 and MiaPaCa2).
(§4) Human pancreatic cancer cell lines (CD18/HPAF-II and MiaPaCa2) and HEK293T cells were obtained from American Type Culture Collection. All cell lines were cultured according to the manufacturer's protocol. All media contained 10% Fetal Bovine Serum (FBS) and antibiotics (100 U/mL Penicillin and 100 μg/mL Streptomycin).
(§5) Whole cell extracts of cultured cells were prepared in radioimmunoprecipitation (RIPA) lysis buffer supplemented with phosphatase and protease inhibitors (Calbiochem). Protein concentration was determined by the bicinchoninic acid assay (BCA) (ThermoFisher) and separated by the SDS-PAGE technique. […] Secondary anti-mouse IgG (A4416) and anti-rabbit IgG (A6667) antibodies were purchased from Sigma-Aldrich and used a 1:4000 dilution. Images of blots were acquired on HyBlot ES Autoradiography Film (Thomas Scientific, Swedesboro, NJ, USA) following incubation with SuperSignal West Pico PLUS (ThermoFisher).

[2] = system: JNK phosphorylation in MiaPaCa2 cells; test: anisomycin-induced JNK phosphorylation, western blotting, MiaPaCa2; assay type: cell-based, human; settings: MiaPaCa2, anisomycin 45 minutes then compound 5 hours
Protocol: as §2, §3, §4, §5

HEK293T cells = test: cell proliferation (cell count after 72 hours), HEK293T; assay type: cell-based, human; settings: varying doses
Protocol: After 72 hours, cells were trypsinized, counted, and the cell numbers were normalized against the DMSO treatment. Mean±SD. Graphs are representative of 3 biological replicates. One-way ANOVA; ns, non-significant **, p<0.01 ***, p<0.001.
as §3, §4

[3] = system: phospho-p38 MAPK in HEK293T cells; test: p38 MAPK phosphorylation, western blotting, HEK293T; assay type: cell-based, human; settings: anisomycin pretreatment, compound 100 μM, 5 hours
Protocol: as §2
(§6) We next evaluated the effects of our inhibitors on the phosphorylation activity and expression of MEK1/2, MEK3/6, and MEK7. […] We also evaluated the effects on p42/44 MAPK (ERK1/2), which functions downstream of MEK1/2.
as §5

[4] = system: phospho-p42/44 MAPK in HEK293T cells; test: p42/44 MAPK (ERK1/2) phosphorylation, western blotting, HEK293T; assay type: cell-based, human; settings: anisomycin pretreatment, compound 100 μM, 5 hours
Protocol: as §2, §6, §5

NC(=O)c1ccc(NS(=O)(=O)c2cccc(-c3n[nH]c4cc(F)ccc34)c2)cc1 [Compound 15o, 4-((3-(6-fluoro-1H-indazol-3-yl)phenyl)sulfonamido)benzamide]
number of kinases hit at 80% or higher inhibition, out of 97 kinases (97 kinases): 28
inhibition of ERK1 (ERK1): did not inhibit
inhibition of RAF (RAF): did not inhibit
inhibition of JNK1/2/3 (JNK1/2/3): did inhibit
half-life (in vitro): > 3.08 h
stability in the microsome assay (in vitro): good stability
effect on anisomycin-induced JNK phosphorylation [1]: attenuated anisomycin-induced JNK phosphorylation
effect on anisomycin-induced JNK phosphorylation [2]: attenuated anisomycin-induced JNK phosphorylation
cell proliferation (HEK293T cells): decreased. HEK293T cell proliferation in a dose-dependent manner
effect on anisomycin-induced p38 MAPK phosphorylation [3]: not affected
effect on p42/44 MAPK phosphorylation after anisomycin [4]: reversed the effects of anisomycin

— US20240116875A1, “RATIONAL DESIGN, OPTIMIZATION, AND BIOLOGICAL EVALUATION OF NOVEL MEK4 INHIBITORS AGAINST PANCREATIC ADENOCARCINOMA” (NORTHWESTERN UNIVERSITY, priority 2022, published 2024)
